Laboratory results published in publication PMC12495412, “Coumarin/nitrogen-bearing heterocyclic hybrid-loaded electrospun PMMA/PVP nanofibrous scaffolds for accelerating topical wound healing rates: synthesis and in vitro bio-evaluation” (RSC Advances, 2025).
In brackets after ≈: the same amount, converted by molar mass.

Experiments:
Wi-38 cells = experiment: MTT cytotoxicity assay, normal cells; format: cell-based; details: 48 h; for IC50 Wi-38: normal human lung fibroblast cells
From the text: (§1) MTT assay: the normal cell line (Wi-38), colon cancer (Caco-2), lung cancer (A549), and breast cancer (MDA) cell lines were sourced from ATCC, USA. All different cell lines were cultivated and preserved in DMEM medium (SERANA, Germany), accompanied by 10% FBS (Gibco, USA) and 1% Pen/Strep solution (Lonza, USA). The newly prepared derivatives at various doses were considered for their anticancer activity and their safety on normal cells, applying MTT (3-[4, 5-dimethylthiazol]-2, 5-diphenyltetrazolium bromide) methods.[22] At first, all normal and cancer cell lines (1.0 ×10^4) were inoculated in 4 antiseptic 96-well tissue culture microplates and incubated for 24 h in a CO2 incubator. After cell attachments, the prepared derivatives were added to both normal Wi-38 cells at diverse concentrations of (6.25–200 μg mL^−1, 2-fold) and cancer cells at different concentrations of (3.125–100 μg mL^−1, 2-fold) in triplicate and incubated for another 48 h at 37 °C in a CO2 incubator with an adjusted concentration of 5%. After that, the treated cells were cleaned three times with PBS to remove debris and dead cells. Next, 200 μL of 0.5 mg mL^−1 MTT dye solution in PBS was mixed in each well, and the cells were further kept for 3 h at 37 °C in a 5% CO2 incubator. After that, MTT was removed and 200 μL of DMSO was added to each well. The optical density (OD) was recorded at 570 nm via a microplate reader (B.M.G. LabTech, Germany). Basic cells (untreated) were utilized as negative control cells, and 5-fluorouracil (5-FU) was included as a standard chemotherapy drug. The qualified cell viability (%) was evaluated as in equation (eqn (1)):1 Relative cell viability (%) = […] A1 is the OD of the examined derivative, A0 is the OD of the standard, and AU is the OD of the untreated cells.
(§2) Anticancer activity assay: the anticancer effect of each derivative was assessed by evaluating the half-maximal inhibitory concentration (IC50) value via the GraphPad Prism 7.0 software. However, SI (selective index) values of each derivative were estimated by splitting the IC50 value of healthy cells by the IC50 value of malignant cells, as previously reported.[23] The effects of the created derivatives on the morphology of MDA cells were evaluated at IC50 doses and captured by phase-contrast microscopy (Olympus, Germany) in comparison to untreated control cells.

Caco-2 cells = experiment: MTT anticancer assay; format: cell-based; details: for SI Caco-2: IC50 Wi-38 / IC50 Caco-2
From the text: as §1, §2

A549 cells = experiment: MTT anticancer assay; format: cell-based, human; details: 48 h; for IC50 A549: lung carcinoma cells
From the text: as §1, §2

MDA cells = experiment: MTT anticancer assay; format: cell-based, human; details: 48 h; for IC50 MDA: breast carcinoma cells
From the text: as §1, §2

[1] = colon carcinoma cells, MTT, 48 h

Compound	IC50 Wi-38 (Wi-38 cells) [µg/mL]	SI Caco-2 (Caco-2 cells)	IC50 Caco-2 (Caco-2 cells; [1]) [µg/mL]	IC50 A549 (A549 cells) [µg/mL]	IC50 MDA (MDA cells) [µg/mL]	IC50 (Wi-38 cells; WI-38, normal human lung fibroblast cells) [µg/mL]	IC50 (Caco-2 cells; Homo sapiens, Caco-2, colon carcinoma cells, MTT, 48 h) [µg/mL]	IC50 (A549 cells; Homo sapiens, A549, lung carcinoma cells) [µg/mL]	IC50 (MDA cells; Homo sapiens, Breast carcinoma cell) [µg/mL]
Nc1ccc(Nc2ccnc3cc(Cl)ccc23)cc1 [Compound A1]	175.3 ± 14.08 (≈ 650 µM)	4.59 ± 0.37	38.23 ± 1.64 (≈ 142 µM)	32.05 ± 2.18 (≈ 119 µM)	14.91 ± 0.96 (≈ 55.3 µM)				
O=c1[nH]cc(F)c(=O)[nH]1 [Compound 5-FU, 5-fluorouracil, reference compound]		0.85 ± 0.03				5.23 ± 0.18 (≈ 40.2 µM)	6.13 ± 0.28 (≈ 47.1 µM)	5.74 ± 0.24 (≈ 44.1 µM)	5.89 ± 0.19 (≈ 45.3 µM)
Cc1ccc(-c2nnc(Nc3ccc(N)cc3)c3ccccc23)cc1 [Compound C1]	192.7 ± 16.79 (≈ 590 µM)	15.94 ± 1.39	12.09 ± 1.42 (≈ 37 µM)	21.01 ± 2.05 (≈ 64.4 µM)	13.98 ± 0.57 (≈ 42.8 µM)				
